Earlier results as cited in patent US6245354A, “Drug delivery system using galactoxyloglucan” (Dainippon Pharmaceutical Co., Ltd., priority 1996, dated 2001).

In the case of `CO[C@@]12[C@H](COC(N)=O)C3=C(C(=O)C(C)=C(N)C3=O)N1C[C@@H]1N[C@@H]12` [mitomycin C], the “transfer to systemic circulation” value (administered into the abdominal cavity) is given as “rapidly transferred to a systemic circulation” and the therapeutic effects (peritoneal tumors, carcinomatous peritonitis, into the abdominal cavity) is given as “can not exhibit sufficient therapeutic effects”.
